# Experimental data reported in PubChem BioAssay (NCI).
#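 GI50 marks 50% less growth. At the TGI there is no net growth.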
# Key:
# Assay in all cases: inhibition of tumour cell growth, NCI panel, 384-well format
# [1] = test system: 786-0 renal
# [2] = test system: A498 renal
# [3] = test system: A549 NSCLC
# [4] = test system: ACHN renal
# [5] = test system: BT-549 breast
# [6] = test system: CAKI-1 renal
# [7] = test system: CCRF-CEM leukemia
# [8] = test system: COLO 205 colon
# [9] = test system: DU-145 prostate
# [10] = test system: EKVX NSCLC
# [11] = test system: HCC-2998 colon
# [12] = test system: HCT-15 colon
# [13] = test system: HL-60(TB) leukemia
# [14] = test system: HOP-62 NSCLC
# [15] = test system: HOP-92 NSCLC
# [16] = test system: HS 578T breast
# [17] = test system: HT29 colon
# [18] = test system: IGROV1 ovarian
# [19] = test system: K-562 leukemia
# [20] = test system: KM12 colon
# [21] = test system: LOX IMVI melanoma
# [22] = test system: M14 melanoma
# [23] = test system: MALME-3M melanoma
# [24] = test system: MCF7 breast
# [25] = test system: MDA-MB-231 breast
# [26] = test system: MDA-MB-435 melanoma
# [27] = test system: MDA-MB-468 breast
# [28] = test system: MOLT-4 leukemia
# [29] = test system: NCI-H226 lung
smiles,measurement,setting,value
COc1cc2c(cc1-c1c(C)noc1C)cc(C)c(=O)n2Cc1ccccn1,GI50,[1],812 nM
same,TGI,[1],19200 nM
same,GI50,[2],418 nM
same,TGI,[2],12400 nM
same,GI50,[3],557 nM
same,TGI,[3],18300 nM
same,GI50,[4],1050 nM
same,TGI,[4],> 100000 nM
same,GI50,[5],262 nM
same,TGI,[5],1680 nM
same,GI50,[6],342 nM
same,TGI,[6],18500 nM
same,GI50,[7],338 nM
same,TGI,[7],1650 nM
same,GI50,[8],498 nM
same,TGI,[8],13300 nM
same,GI50,[9],6450 nM
same,TGI,[9],> 100000 nM
same,GI50,[10],4540 nM
same,TGI,[10],> 100000 nM
same,GI50,[11],324 nM
same,TGI,[11],1410 nM
same,GI50,[12],282 nM
same,TGI,[12],1550 nM
same,GI50,[13],118 nM
same,TGI,[13],255 nM
same,GI50,[14],415 nM
same,TGI,[14],16500 nM
same,GI50,[15],234 nM
same,TGI,[15],4540 nM
same,GI50,[16],192 nM
same,TGI,[16],671 nM
same,GI50,[17],376 nM
same,TGI,[17],5680 nM
same,GI50,[18],566 nM
same,TGI,[18],3330 nM
same,GI50,[19],448 nM
same,TGI,[19],2780 nM
same,GI50,[20],691 nM
same,TGI,[20],20300 nM
same,GI50,[21],321 nM
same,TGI,[21],1090 nM
same,GI50,[22],600 nM
same,TGI,[22],21800 nM
same,GI50,[23],274 nM
same,TGI,[23],2180 nM
same,GI50,[24],257 nM
same,TGI,[24],2480 nM
same,GI50,[25],367 nM
same,TGI,[25],16200 nM
same,GI50,[26],1010 nM
same,TGI,[26],2420 nM
same,GI50,[27],226 nM
same,TGI,[27],693 nM
same,GI50,[28],616 nM
same,TGI,[28],1920 nM
same,GI50,[29],646 nM
